For one experiment, the system named is E. coli ML-35p. Description: radial diffusion assay. The following applies: for potency relative to Clavanins A and B: E. coli ML-35P, radial diffusion (FIG. 5). In kind it is cell-based. As to the method:
(§1) In more detail, the filtrates (≈3.5 mg of protein by BCA) were concentrated to 2 ml by vacuum centrifugation in a Speed Vac Concentrator (Savant Instruments, Hicksville, N.Y.). Gel permeation chromatography was performed on a 1.2×65 cm BioGel P-10 gel permeation column with 5% acetic acid. Preparative continuous acid-urea PAGE electrophoresis was performed as described by Harwig, S. S. L. et al., Anal Biochem (1993) 208:382. Active fractions were pooled and purified by RP-HPLC a 4.6×250 mm Vydac C18 column, using various linear gradients of acetonitrile in 0.1% trifluoroacetic acid (TFA) or […],) heptafluorobutyric acid (HFBA). Throughout this multistep procedure, fractions were lyophilized, concentrated and tested for antimicrobial activity against Listeria monocytogenes strain EGD by a radial diffusion technique described in Lehrer, R. I. et al., J Immunol Methods (1991) 137:167. In these assays, the underlay gels contained 9 mM sodium phosphate and 1 mM sodium citrate buffer, 0.30 mg/ml of trypticase soy broth powder (BBL, Cockeysville, Md.) and […] at a final pH of 6.5.
(§2) In addition to Cecropin P1 and Magainin 1, the activity of Clavanin A(K) was also tested. Clavanin A(K) is identical to Clavanin A except that all of the histidine residues are replaced by lysine. […] The data are provided as minimal bacteriocidal concentrations expressed in μg/ml which are the X-intercepts of radial diffusion assays performed at pH 6.5 in an underlay that contained 10 mM buffer ([…]), 1% agarose and 0.3 mg trypticase soy powder/ml.
(§3) The effect of pH on antimicrobial activity against several organisms was tested in a pH range wherein histidine becomes comparably charged to lysine. FIGS. 6-8 show the results for native or synthetic Clavanin A and synthetic Clavanin A(K) using defensin NP-2 as a control, with respect to L. monocytogenes, E. coli, and C. albicans respectively. The radial diffusion assays were conducted as described in Examples 1 and 3 above.

The subject of a further experiment is L. monocytogenes EGD. The experiment is described as follows: radial diffusion assay. The experiment is classed as cell-based, Listeria monocytogenes. To be noted: for potency relative to Clavanins A and B: L. monocytogenes Strain EGD, radial diffusion (FIG. 5). On the procedure: as §1, §2, §3
In another experiment the test system is S. aureus 930918-3. The experiment is described as follows: radial diffusion assay, minimal bactericidal concentration. In kind it is cell-based. To be noted: X-intercept of radial diffusion assay, pH 6.5. As to the method:
as §1, §2

The subject of another experiment is K. pneumoniae 2270. The experiment is described as above. The experiment is classed as cell-based. To be noted: X-intercept of radial diffusion assay, pH 6.5. As to the method: as §1, §2
A further experiment deals with E. faecium 94.132 (VR). The description is as above. The following applies: X-intercept of radial diffusion assay, pH 6.5. The experiment is classed as cell-based. On the procedure:
as §1, §2

The subject of another experiment is MRSA 28841. Described as above. In kind it is cell-based. To be noted: X-intercept of radial diffusion assay, pH 6.5. On the procedure: as §1, §2
The test system of another experiment is E. faecalis CDC 21 (VR). Described as above. The following applies: X-intercept of radial diffusion assay, pH 6.5. In kind it is cell-based. On the procedure:
as §1, §2

The test system of a further experiment is E. faecium. The experiment is described as above. In kind it is cell-based. To be noted: E. faecium (strain not given); X-intercept of radial diffusion assay, pH 6.5. As to the method:
as §1, §2

Another experiment concerns S. typhimurium 7953s. Described as above. The experiment is classed as cell-based. To be noted: X-intercept of radial diffusion assay, pH 6.5. On the procedure: as §1, §2
Another experiment concerns MRSA 30371. Described as above. The experiment is classed as cell-based. The following applies: X-intercept of radial diffusion assay, pH 6.5. On the procedure:
as §1, §2

The next experiment relates to P. aeruginosa MR 2133. The description is as above. In kind it is cell-based. To be noted: X-intercept of radial diffusion assay, pH 6.5. As to the method:
as §1, §2

A further experiment deals with E. coli BAS 894. Described as above. The experiment is classed as cell-based. To be noted: X-intercept of radial diffusion assay, pH 6.5. As to the method:
as §1, §2

Another experiment has as its system P. aeruginosa MR 3007. The experiment is described as above. The experiment is classed as cell-based. The following applies: X-intercept of radial diffusion assay, pH 6.5. As to the method: as §1, §2
The test system of the next experiment is S. typhimurium 14028s. The experiment is described as above. In kind it is cell-based. The following applies: X-intercept of radial diffusion assay, pH 6.5. As to the method: as §1, §2
Another experiment concerns P. aeruginosa SBI-N. Described as above. To be noted: X-intercept of radial diffusion assay, pH 6.5. In kind it is cell-based. As to the method:
as §1, §2

A further experiment concerns E. coli mcr 106. The description is as above. The following applies: X-intercept of radial diffusion assay, pH 6.5. In kind it is cell-based. As to the method:
as §1, §2

In the case of “AFKLL GRIIH HVGNF VY'GFS HVF* [Clavanin D]”, the “potency relative to Clavanins A and B” value with E. coli ML-35p and with L. monocytogenes EGD was 3-5 fold throughout.
Regarding “Cecropin P1: known antimicrobial peptide used for comparison (SWLSKTAKKLENSAKKRISEGIAIAIQGGPR; Cecropin-P1; UniProt P14661 14-44, looked up)”, the minimal bacteriocidal concentration in the experiment on E. coli ML-35p (E. coli ML-35p, X-intercept of radial diffusion assay, pH 6.5) was 0.64 µg/mL; with S. aureus 930918-3, more than 200 µg/mL; with K. pneumoniae 2270, 0.70 µg/mL; in the experiment on E. faecium 94.132 (VR), 7.5 µg/mL; in the experiment with MRSA 28841, more than 200 µg/mL; in the experiment with E. faecalis CDC 21 (VR) it was more than 200 µg/mL. Besides, the minimal bacteriocidal concentration in the experiment on E. faecium is 6.5 µg/mL; with S. typhimurium 7953s, 0.43 µg/mL; with MRSA 30371 it was more than 200 µg/mL; in the experiment with P. aeruginosa MR 2133, 0.51 µg/mL; in the experiment on E. coli BAS 894, 0.41 µg/mL; with P. aeruginosa MR 3007, 0.71 µg/mL. In addition, the minimal bacteriocidal concentration in the experiment with S. typhimurium 14028s was found to be 0.72 µg/mL; with P. aeruginosa SBI-N, 0.44 µg/mL; in the experiment on E. coli mcr 106, 0.54 µg/mL; in the experiment with L. monocytogenes EGD (L. monocytogenes EGD, X-intercept of radial diffusion assay, pH 6.5), 6.0 µg/mL.
For “VFHLL GKIIH HVGNF VY'GFS HVF* [Clavanin C]”, the “potency relative to Clavanins A and B” value with E. coli ML-35p and in the experiment on L. monocytogenes EGD was 3-5 fold each time.

(Values after US6010876A, “Clavanins” (The Regents of the University of California, priority 1996, dated 2000).)
